Data set [1] has as its system HCC1937 (human breast cancer cells). In words: Tumor cell proliferation inhibition (SRB, 72 hours), HCC1937. In kind it is cell-based. The procedure:
(§1) Inoculating HCT116 (human colon cancer cells), HCC1937 (human breast cancer cells), MDA-MB-231 (human breast cancer cells) and MDA-MB-468 (human breast cancer cells) in a logarithmic growth phase with a certain quantity in a 96-well plate (200 μL/well) for culture for 24 hours so as to adhere to walls and then adding drugs. Arranging 3 duplicate wells for each drug concentration, and setting corresponding zero-cut holes and blank controls. After 72 hours of drug action, adding 50% TCA (50 μL/well) into adherent cells, fixing at 4° C. for 1 hour, pouring a fixing solution, washing for 5 times with distilled water, and naturally drying. Adding 100 μL of 4 mg/mL SRB into each well, staining at a room temperature for 15 minutes, discarding, washing for 5 times with 1% glacial acetic acid, and naturally drying. Finally, adding 150 μL of a 10 mM Tris solution into each well, shaking to be uniform, and measuring OD values at a wavelength of 565 nm using a wavelength-adjustable microplate reader (VERSAmax™, Molecular Device).

For data set [2], the target named is PI3Kα (Homo sapiens, UniProt P42336). The experiment in a line: PI3Kα inhibitory activity at the enzyme level (ADP detection by luciferase method). The class given is biochemical. The conditions noted are these: for inhibition at 0.1 µM: 100 nM compound, read-out: Inhibition rate on PI3Kα (100 nM). The procedure: Experimental method for PI3Kα inhibitory activity: simultaneously adding 40 mM Tris, pH 7.4, 10 mM MgCl2, 0.1 mg/ml BSA, 1 mM DTT, 10 μM ATP, PI3Kα kinase and a kinase substrate into different concentrations of compounds to be sieved to form a 50 μL reaction system, after reaction at 30° C. for 40 minutes, detecting an ADP content in the system through a luciferase method, and then after reaction for 5 minutes, detecting a chemiluminescence signal on an MD-SpectraMax M5 multi-function microplate reader, wherein the intensity of a value of the chemiluminescence signal is in direct proportion to […]. The detected value of the chemiluminescence signal is substituted into the following formula: Enzyme activity percentage (%)=(OD value administration hole-OD value background)/(OD value control hole−OD value background)×100%
PI3Kα, sequence (P42336 whole entry): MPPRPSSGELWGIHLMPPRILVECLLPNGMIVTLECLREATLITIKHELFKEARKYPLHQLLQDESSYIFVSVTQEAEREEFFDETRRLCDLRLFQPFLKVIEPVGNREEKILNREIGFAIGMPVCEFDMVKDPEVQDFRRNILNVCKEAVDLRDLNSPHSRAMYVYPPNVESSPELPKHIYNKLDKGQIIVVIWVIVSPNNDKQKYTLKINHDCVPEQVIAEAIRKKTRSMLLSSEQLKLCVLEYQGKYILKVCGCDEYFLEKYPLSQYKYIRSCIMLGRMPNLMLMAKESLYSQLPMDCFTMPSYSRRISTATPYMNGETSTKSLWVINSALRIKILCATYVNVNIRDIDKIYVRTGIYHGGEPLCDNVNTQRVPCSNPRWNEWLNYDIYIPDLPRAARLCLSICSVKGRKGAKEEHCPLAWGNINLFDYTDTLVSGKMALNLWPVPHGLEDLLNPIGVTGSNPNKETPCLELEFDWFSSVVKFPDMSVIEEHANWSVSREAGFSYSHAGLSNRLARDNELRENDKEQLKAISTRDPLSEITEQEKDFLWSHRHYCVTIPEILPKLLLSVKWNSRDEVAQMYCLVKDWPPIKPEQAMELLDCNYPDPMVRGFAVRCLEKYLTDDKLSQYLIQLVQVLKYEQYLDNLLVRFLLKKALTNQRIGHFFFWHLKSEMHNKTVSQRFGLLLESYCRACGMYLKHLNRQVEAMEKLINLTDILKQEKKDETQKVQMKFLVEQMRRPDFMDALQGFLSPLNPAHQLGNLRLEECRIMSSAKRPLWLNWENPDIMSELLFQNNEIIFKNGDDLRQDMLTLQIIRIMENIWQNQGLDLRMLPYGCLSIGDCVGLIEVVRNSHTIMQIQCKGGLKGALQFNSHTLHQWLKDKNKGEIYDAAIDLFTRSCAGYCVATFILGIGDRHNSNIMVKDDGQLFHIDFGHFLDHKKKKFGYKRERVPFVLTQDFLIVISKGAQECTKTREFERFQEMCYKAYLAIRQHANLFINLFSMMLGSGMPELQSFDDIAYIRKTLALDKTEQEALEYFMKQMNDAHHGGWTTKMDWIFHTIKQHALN
PI3Kα, sequence (P27986 whole entry partner): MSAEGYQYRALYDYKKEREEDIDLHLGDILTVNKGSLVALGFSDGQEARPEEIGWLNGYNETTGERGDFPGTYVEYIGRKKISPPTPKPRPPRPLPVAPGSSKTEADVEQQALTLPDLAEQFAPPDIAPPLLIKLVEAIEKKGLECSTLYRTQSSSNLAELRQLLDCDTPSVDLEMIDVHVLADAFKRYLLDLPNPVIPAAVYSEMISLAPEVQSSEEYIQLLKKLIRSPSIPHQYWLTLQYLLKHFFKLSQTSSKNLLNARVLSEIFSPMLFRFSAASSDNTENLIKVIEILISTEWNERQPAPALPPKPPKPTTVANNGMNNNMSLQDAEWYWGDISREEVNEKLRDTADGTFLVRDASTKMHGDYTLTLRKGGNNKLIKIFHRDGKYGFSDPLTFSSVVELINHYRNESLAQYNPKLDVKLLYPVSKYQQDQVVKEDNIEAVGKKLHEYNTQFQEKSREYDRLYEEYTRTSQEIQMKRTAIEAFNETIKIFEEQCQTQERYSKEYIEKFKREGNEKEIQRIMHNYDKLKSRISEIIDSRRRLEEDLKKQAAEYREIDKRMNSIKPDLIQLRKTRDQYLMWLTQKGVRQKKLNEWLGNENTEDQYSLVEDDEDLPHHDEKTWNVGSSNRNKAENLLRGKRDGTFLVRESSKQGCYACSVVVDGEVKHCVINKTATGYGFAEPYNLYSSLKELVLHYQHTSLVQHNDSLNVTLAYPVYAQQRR
(§2) Method for determining IC50 of PARP-1 and PI3Kα: diluting a drug concentration according to a three-fold concentration gradient, and detecting two duplicate wells at each concentration; taking the drug concentration as the abscissa and the percentage of enzyme activity corresponding to each concentration as the ordinate, and calculating to obtain inhibition IC50 values of all tested compounds by using Graphpad Prism5 for nonlinear regression.

Data set [3] concerns MDA-MB-231 (human breast cancer cells). In words: Tumor cell proliferation inhibition (SRB, 72 hours), MDA-MB-231. In kind it is cell-based. On the procedure: as §1
Data set [4] relates to MDA-MB-468 (human breast cancer cells). In words: Tumor cell proliferation inhibition (SRB, 72 hours), MDA-MB-468. The class given is cell-based. On the procedure:
as §1

Data set [5] has as its target PARP-1 (Homo sapiens, UniProt P09874). In words: PARP-1 inhibitory activity at the enzyme level (histone-coated plate, chemiluminescence). In kind it is biochemical. The conditions noted are these: for inhibition at 0.01 µM: 10 nM compound, read-out: Inhibition rate on PARP-1 (10 nM). On the procedure: Experimental method for PARP-1 inhibitory activity: taking out a 96-well plate pre-coated with histones, and adding a following enzyme reaction system and inhibitors of different concentrations into each well, including: 50 μL of a reaction buffer solution (Tris*HCl, pH 8.0), NAD^+, biotin-labeled activated DNA, PARP-1 enzyme, and an inhibitor; after reaction at a room temperature for 1 hour, adding 50 uL of avidin-labeled HRP into each well for reaction for 30 minutes; and then adding 100 μL of an HRP substrate, and detecting a chemiluminescence value on a SpectraMax M instrument. The percentage of enzyme activity is calculated by the following formula: Enzyme activity percentage (%)=(OD value administration hole-OD value background)/(OD value control hole−OD value background)×100%
as §2

Data set [6] relates to Human Breast Cancer MDA-MB-468 Cell Nude Mice Xenograft. The experiment in a line: Growth of human breast cancer MDA-MB-468 cell nude mice xenograft. The class given is in vivo. On the procedure: Preparing an MDA-MB-468 cell line in a logarithmic growth phase into a 2×10^7/mL cell suspension under sterile conditions, and inoculating 0.1 mL of the cell suspension under the skin of the right axilla of each nude mouse. Measuring the diameter of a nude mice xenograft with a vernier caliper, and randomly dividing the animals into groups after the tumors grew to about 100 mm^3. Dynamically observing an anti-tumor effect of the tested animals using a method of measuring the tumor diameter, wherein the frequency of measurements of the tumor diameter is once every 2 days, and the administration volume is 0.4 mL/20 g. After 34 days, killing the mice and surgically removing and weighing tumor pieces. The formula for calculating tumor volume (TV) is: TV=½×a×b^2, wherein a and b represent the length and the width respectively.

The test system of data set [7] is HCT116 (human colon cancer cells). In words: Tumor cell proliferation inhibition (SRB, 72 hours), HCT116. In kind it is cell-based. The procedure:
as §1

Setting [8] is: I-1 50 mg/kg, 1-3 50 mg/kg, olaparib 50 mg/kg/BKM120 27.5 mg/kg.

Molecules are shown by their SMILES. Where two headings read alike, the source gives them in different places.

PARP-1, sequence (P09874 whole entry): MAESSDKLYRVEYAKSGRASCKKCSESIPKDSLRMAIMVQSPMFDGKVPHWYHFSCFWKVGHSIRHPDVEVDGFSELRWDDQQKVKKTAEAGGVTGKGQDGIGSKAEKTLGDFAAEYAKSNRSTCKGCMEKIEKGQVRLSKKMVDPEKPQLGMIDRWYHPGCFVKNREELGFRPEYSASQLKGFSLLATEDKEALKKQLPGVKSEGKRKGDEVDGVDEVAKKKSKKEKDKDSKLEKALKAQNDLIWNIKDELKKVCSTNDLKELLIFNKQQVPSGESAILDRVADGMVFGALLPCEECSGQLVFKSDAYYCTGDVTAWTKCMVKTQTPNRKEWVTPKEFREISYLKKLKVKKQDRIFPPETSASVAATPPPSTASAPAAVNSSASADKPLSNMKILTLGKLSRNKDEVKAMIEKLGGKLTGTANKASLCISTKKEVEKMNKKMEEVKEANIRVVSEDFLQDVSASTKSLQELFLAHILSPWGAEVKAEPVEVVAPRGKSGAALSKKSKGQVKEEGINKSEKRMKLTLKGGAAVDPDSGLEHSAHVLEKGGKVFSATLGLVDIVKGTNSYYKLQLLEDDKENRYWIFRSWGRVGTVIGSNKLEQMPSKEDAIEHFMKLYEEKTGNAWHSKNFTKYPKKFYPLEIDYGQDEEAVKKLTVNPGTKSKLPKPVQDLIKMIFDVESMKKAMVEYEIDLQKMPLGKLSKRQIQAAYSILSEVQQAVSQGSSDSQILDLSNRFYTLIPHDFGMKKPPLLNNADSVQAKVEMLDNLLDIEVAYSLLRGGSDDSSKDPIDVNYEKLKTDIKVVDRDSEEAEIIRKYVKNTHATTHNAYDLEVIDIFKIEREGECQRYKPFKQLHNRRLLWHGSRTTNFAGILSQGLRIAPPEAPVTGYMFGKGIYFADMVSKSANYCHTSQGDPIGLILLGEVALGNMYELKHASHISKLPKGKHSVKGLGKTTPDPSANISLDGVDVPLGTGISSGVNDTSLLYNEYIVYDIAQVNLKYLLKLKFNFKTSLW

With `Nc1cc(C(F)(F)F)c(-c2nc3c(c(N4CCOCC4)n2)CCN(C(=O)c2cc(Cc4n[nH]c(=O)c5ccccc45)ccc2F)C3)cn1` [I-3, 4-(3-(2-(6-amino-4-(trifluoromethyl)pyridin-3-yl)-4-morpholinyl-5,6,7,8-tetrahydropyrido [3,4-d]pyrimidin-7-formyl)-4-fluorobenzyl)phthalazin-1(2H)-one], the IC50 in data set [1] was 0.504 µM; in data set [1] (Homo sapiens, HCC1937, 72 h) it was less than 1 µM; in data set [2] it was 0.194 µM; in data set [3] it was 0.155 µM; in data set [4] it was 0.266 µM; in data set [5], 0.0049 µM. Besides, the IC50 in data set [7] is 0.775 µM; in data set [7] (Homo sapiens, HCT-116, 72 h), less than 1 µM. The inhibition at 0.1 µM in data set [2] was found to be 34%. The inhibition at 0.01 µM in data set [5] was 55%. The “Tumor Volumes” value in data set [6] (0 day, 50 mg/kg (I-1: medium), abdominal cavity, once every 2 days) stood at 93.00 mm^3; in data set [6] (6 days, 50 mg/kg (I-1: medium), abdominal cavity, once every 2 days), 142.00 mm^3; in data set [6] (12 days, 50 mg/kg (I-1: medium), abdominal cavity, once every 2 days), 190.90 mm^3; in data set [6] (18 days, 50 mg/kg (I-1: medium), abdominal cavity, once every 2 days), 216.60 mm^3; in data set [6] (24 days, 50 mg/kg (I-1: medium), abdominal cavity, once every 2 days), 241.50 mm^3; in data set [6] (30 days, 50 mg/kg (I-1: medium), abdominal cavity, once every 2 days), 280.80 mm^3. Besides, the “Tumor Volumes” value in data set [6] (34 days, 50 mg/kg (I-1: medium), abdominal cavity, once every 2 days) is 310.10 mm^3. In addition, in data set [6] (50 mg/kg), the “Anti-tumor effect, ranking among the groups (in words)” value is listed as “optimal”. Moreover, the “Anti-tumor effect compared with the combination group olaparib (50 mg/kg)/BKM120 (27.5 mg/kg) (in words)” value in data set [6] (50 mg/kg, p<0.05) is reported as “obviously superior”. For the same compound, the “Inhibition of the growth of the MDA-MB-468 nude mice xenografts (in words)” value in data set [6] (setting [8]) is on record as “significantly inhibit the growth”. The “Inhibition rate compared with positive drugs olaparib and BKM120 (in words)” value in data set [6] (setting [8]) is reported as “higher”. The Tumor weights in data set [6] (after 34 days, 50 mg/kg (I-1: medium), abdominal cavity, once every 2 days, in g (unit assumed)) worked out at 0.44.
The compound `C[C@@H]1CN(c2nc(-c3cnc(N)nc3)nc3c2CCN(C(=O)c2cc(Cc4n[nH]c(=O)c5ccccc45)ccc2F)C3)C[C@H](C)O1` [I-12, 4-(3-(2-(2-aminopyrimidin-5-yl)-4-((2S,6R)-2,6-dimethylmorpholinyl)-5,6,7,8-tetrahydropyrido [3,4-d]pyrimidin-7-formyl)-4-fluorobenzyl) phthalazin-1(2H)-one] had a melting point of 204 to 206 °C. In addition, the midpoint of inhibition in data set [1] (Homo sapiens, HCC1937, 72 h), the IC50, lay at 0.784 µM. For the same compound, in data set [2], inhibition was half-maximal at 0.0926 µM (IC50) and the inhibition at 0.1 µM was 40%. Moreover, 1.13 µM corresponded to half-maximal inhibition in data set [3] (Homo sapiens, MDA-MB-231, 72 h) (IC50). The same compound registered a half-maximal inhibitory concentration (IC50) in data set [4] (Homo sapiens, MDA-MB-468, 72 h) of 1.58 µM. In addition, in data set [5], the IC50 is 0.00387 µM and the inhibition at 0.01 µM came to 76%. The compound also displayed an IC50 in data set [7] (Homo sapiens, HCT-116, 72 h) of 1.01 µM.
